Patent US20100115666A1, “Transcriptional Repressors of Cytokinin Signaling and Their Use” (FREIE UNIVERSITÄT BERLIN, priority 2006, published 2010)

Experiments:
[1] = tested on: detached leaves; experiment: Chlorophyll retention assay in detached leaves; type: in vivo, Arabidopsis thaliana; details: wild type leaves, 0.1 μM BA, 10 d dark
Description: (b) Quantification of chlorophyll retention by cytokinin. […] Three independent plates with five leaves per plate were examined for each concentration. Two chlorophyll measurements were taken per plate. The chlorophyll content was determined spectrophotometrically as described in Example 3.5. Error bars represent SD (n=15). The chlorophyll retention assay was performed as described by ([…] et al., 2006). Either the sixth or the seventh leaf was detached from 24-days-old in vitro grown seedlings and floated on distilled water supplemented with 0, 0.01, 0.1, 0.5, 1.0 or 5.0 μM BA in 0.1% DMSO in small Petri dishes for 10 d at RT in the dark. Three replicates of each genotype, each consisting of five leaves were taken for measurement. Chlorophyll was extracted with methanol for 24 h in the dark. The amount of chlorophyll was measured with a spectrophotometer, normalized to fresh weight, and the chlorophyll content was calculated as described (Porra et al., 1989).

[2] = tested on: Arabidopsis seedlings; experiment: Cytokinin sensitivity of roots (root elongation, lateral root formation); type: in vivo, Arabidopsis thaliana
Description: ([…] plants are less sensitive to cytokinin inhibition of root elongation. Root elongation was measured for each line between 4 and 9 DAG. The root elongation of each line is expressed as percentage of its DMSO control. Results shown for each line represent means from at least three independent replicates. ([…] plants are less sensitive to cytokinin inhibition of lateral root formation. The number of lateral roots was determined 9 DAG. Error bars represent SD (n>15). Arabidopsis seeds were grown on vertical plates containing different concentration of BA ranging from 0.01 μM to 1.0 mM. 0.1% dimethyl sulfoxide (DMSO) was included as vehicle control. The primary root lengths were marked on day four and nine after germination. Photographs were taken with a digital camera (Nikon Coolpix 8800) and root lengths were determined using Scion Image program version beta 4.02 (www.scioncorp.com). The number of lateral roots emerging from the epidermis of the primary root was counted under a microscope […]. The experiments were performed using three independent replicates and 15 seedlings in each replicate. To investigate the cytokinin response in roots, seedlings of wild type and the 35[…] lines were grown on media containing increasing amounts of cytokinin. […] The relative difference in root length increased with increasing cytokinin concentrations (FIG. 7a). […]

[3] = tested on: ARR6:GUS reporter gene; experiment: Protoplast transactivation assay (ARR6:GUS reporter); type: cell-based, Arabidopsis
Description: The ARR6:GUS reporter construct and a 35S:GUS construct without any effector plasmid were used as controls. Protoplasts were co-transfected with the ARR6:GUS reporter and an effector plasmid expressing ARR1, ARR1-SRDX or both effector plasmids simultaneously. […] Variations in transformation efficiencies were normalized by using a 35S:NAN reporter gene construct. The mean values and SD of four independent transfection assays were calculated and shown as relative GUS/NAN activity units.
Protoplast isolation and transformation was carried out according to the method described by Hwang and Sheen (Hwang and Sheen, 2001). For isolation of mesophyll protoplasts 4-5 weeks old rosette leaves were used. Transformation of protoplasts was mediated by 40% PEG solution. […] For the transactivation assays, 9 μg of the ARR6: GUS reporter plasmid and 14 μg of each effector plasmid carrying 35S:ARR1 and 35S:ARR1-SRDX were used. For normalization 3 μg of a plasmid harboring the 35S:NAN gene (Kirby and Kavanagh, 2002) was added. Both GUS and NAN enzyme assays were performed according to Kirbay and Kavanagh (Kirby and Kavanagh, 2002). The ratios of GUS and NAN activities were calculated as relative GUS/NAN activity units.

`c1ccc(CNc2ncnc3[nH]cnc23)cc1` [BA] was tested, and the chlorophyll retention [1] was “strongly increased chlorophyll retention”, the “root length reduction compared to control” value ([2]; wild type plants, 1 μM BA) was 75% and the lateral root formation ([2]; wild type, 0.1 μM BA) was “unable to produce lateral roots”.

For `C/C(=C\CNc1ncnc2nc[nH]c12)CO` [cytokinin, trans-zeatin], the “induction of the reporter gene expression compared to the non-induced condition” value ([3]; ARR6:GUS reporter without effector, 500 nM trans-zeatin, 16 h) was “more than threefold induction” and the “further increase of the GUS activity on addition of cytokinin” value ([3]; with 35S:ARR1 effector, 500 nM trans-zeatin) was “twofold increase”.

B1: ARR1: Arabidopsis thaliana B-type response regulator ARR1 (SEQ ID NO: 12), expressed under the 35S promoter (protein, listed as Arabidopsis thaliana)
chain: MMNPSHGRGLGSAGGSSSGRNQGGGGETVVEMFPSGLRVLVVDDDPTCLMILERMLRTCLYEVTKCNRAEMALSLLRKNKHGFDIVISDVHMPDMDGFKLLEHVGLEMDLPVIMMSADDSKSVVLKGVTHGAVDYLIKPVRMEALKNIWQHVVRKRRSEWSVPEHSGSIEETGERQQQQHRGGGGGAAVSGGEDAVDDNSSSVNEGNNWRSSSRKRKDEEGEEQGDDKDEDASNLKKPRVVWSVELHQQFVAAVNQLGVEKAVPKKILELMNVPGLTRENVASHLQKYRIYLRRLGGVSQHQGNLNNSFMTGQDASFGPLSTLNGFDLQALAVTGQLPAQSLAQLQAAGLGRPAMVSKSGLPVSSIVDERSIFSFDNTKTRFGEGLGHHGQQPQQQPQMNLLHGVPTGLQQQLPMGNRMSIQQQIAAVRAGNSVQNNGMLMPLAGQQSLPRGPPPMLTSSQSSIRQPMLSNRISERSGFSGRNNIPESSRVLPTSYTNLTTQHSSSSMPYNNFQPELPVNSFPLASAPGISVPVRKATSYQEEVNSSEAGFTTPSYDMFTTRQNDWDLRNIGIAFDSHQDSESAAFSASEAYSSSSMSRHNTTVAATEHGRNHQQPPSGMVQHHQVYADGNGGSVRVKSERVATDTATMAFHEQYSNQEDLMSALLKQV
For B1, the GUS activity ([3]; co-transfection with ARR1 under 35S promoter, absence of cytokinin) was “strong increase in GUS activity”.
